The values below come from patent publication US7968572B2, “Nitrogen-containing heterocyclic compound and pharmaceutical application thereof” (Ono Pharmaceuticals Co., Ltd., priority 2005, dated 2011).

Data set [1] concerns the target T1, recombinant human p38α MAP kinase (Homo sapiens, UniProt Q16539).
T1 construct: purchased Upstate Biotechnology #14-251
Nature of the data set: Study on p38α MAP kinase inhibitory activity (ATF2 phosphorylation, Alpha Screen). The class given is biochemical. As to conditions: biotinylated ATF2 substrate, 30° C. for 30 minutes. The procedure: Study on p38α MAP Kinase Inhibitory Activity
Using activating transcription factor-2 (hereinafter abbreviated to ATF2) which is a substrate for p38α MAP kinase, the inhibitory action of the compounds of the present invention was investigated on the phosphorylation by a recombinant human p38α MAP kinase.
A kinase buffer (25 mM Tris-HCl (pH 7.5), 5 mM β-glycerophosphate, 2 mM dithiothreitol, 0.1 mM Na3VO4, 10 mM MgCl2) containing a recombinant human p38α MAP kinase (Upstate Biotechnology #14-251) was added to a 384-well plate (5 μL) (6.25 ng protein/well) for fluorescence measurement. After addition of a kinase buffer (5 μL) containing the compound of the present invention, the resulting mixture was incubated at room temperature for 20 minutes. A substrate mixture (5 μL) of biotinylated ATF2 of 5 μg/mL (Upstate Biotechnology #14-432), adenosine triphosphate (90 μmol/L) (Sigma #FL-AAS) and anti-phosphorylated ATF2 antibody (20-fold dilution) (Cell Signaling Technology #9221L) prepared separately was added thereto, and enzyme reaction was carried out at 30° C. for 30 minutes. After the reaction, Hepes buffer (5 μL) containing 0.25% BSA and 100 mM EDTA was added to stop the enzyme reaction. The amount of a complex of the phosphorylated ATF2 and anti-phosphorylated ATF2 antibody produced by the reaction was measured using an Alpha Screen™ Rabbit Detection kit (Packard #6760607).
The p38α MAP kinase inhibitory activity, which is the effect of the compound of the present invention, was calculated as an inhibition rate (%) according to the following equation: Inhibition rate (%)={(AC−AX)/(AC−AB)}×100
wherein AB is a measured value without addition of the enzyme;
AC is a measured value with addition of the enzyme in the absence of a test compound; and
AX is a measured value with addition of the enzyme in the presence of a test compound.
Inhibition rate of compounds with each concentration was calculated, and a value indicating 50% inhibition (IC50) was determined from the inhibition curve.

Data set [2] concerns TNF-α production induced by lipopolysaccharide (LPS) in rats. Kind of data set: Rat cytokine-production model. The class given is in vivo. The settings on record: male SD rat, oral 0.3 mg/kg, LPS 10 μg/kg intravenously after 8 hours, plasma TNF-α ninety minutes after LPS; read-out: Inhibition rate (%) (Dose of compound: 0.3 mg/kg). The procedure:
Rat Cytokine-Production Model
The in vivo effect of the compound of the present invention was studied on TNF-α production induced by lipopolysaccharide (LPS) in rats.
A vehicle containing the compound of the present invention was orally administered to male SD rat (Charles River Japan, Inc.), and after 8 hours, lipopolysaccharide (LPS, 055:B5, Difco) was intravenously administered at the dose of 10 μg/kg (5 animals/group). Only a vehicle was orally administered to a control group (5 animals). Ninety minutes after the LPS treatment, heparinized blood collection was performed via the abdominal vena cava under anesthesia with ether, and blood plasma was obtained by centrifugation (12,000 rpm, 3 minutes, 4° C.). The obtained blood plasma sample was stored at −80° C. until it was used. TNF-α in the blood plasma was measured using an ELISA kit from R&D System (#RTA00).
The inhibitory activity of the compound of the present invention against TNF-α production was calculated as an inhibition rate (%) according to the following equation: Inhibition rate (%)={(AC−AX)/AC}×100
wherein AC is a measured value in case where no test compound was administered under LPS induction, and
AX is a measured value in case where a test compound was administered under LPS induction.

A short description of data set [3]: Evaluation of artificial lipid membrane binding using a Biacore S51 system. As to conditions: for Binding Level (RU): compound 50 μM, DOPA liposomes on Sensor Chip L1, 37° C., PBS/5% DMSO (pH 7.4 or pH 6.0); for Judgment: phospholipidosis inducing activity judged from artificial lipid membrane binding. As for the experimental part: Evaluation of Artificial Lipid Membrane Binding using a Biacore S51 (Registered Trademark) System
Using an aspirator, 10 mM of 1,2-dioleoyl-sn-glycero-3-phosphate monosodium salt (hereinafter abbreviated to DOPA) chloroform solution was evaporated to be dryness, and 0.6 mL of PBS/5% dimethyl sulfoxide (hereinafter abbreviated to DMSO) was added thereto. After carrying out thorough suspension by vortex, freezing and thawing were repeated for 5 times. Liposomes were prepared using a liposome preparation device (manufactured by Avestin Inc.) and two syringes and diluted to be 0.5 mM with PBS/5% DMSO just before the immobilization.
Each compound having a final concentration in PBS/5% DMSO of 50 μM was prepared by adding 38 μL of 1× PBS to 2 μL of 10 mM DMSO solution and further adding 360 μL of 1× PBS/5% DMSO and measured.
All of the following analyses were carried out using the Biacore S51 (registered trademark) system, and the measuring conditions were set up by Biacore S51 Control Software.
The measuring temperature was set to be 37° C., and PBS/5% DMSO (pH 7.4 or pH 6.0) was used as the buffer. Series S Sensor Chip L1 was used as the sensor chip. DOPA was immobilized on one of the measuring spots on the sensor surface, and the central spot was used as the reference.
Immobilization of the liposomes was carried out for about 3 minutes at a flow rate of 10 μL/minute, and then each compound was added thereto at a flow rate of 30 μL/minute to measure the interaction. The measuring conditions are as shown in the following.
Assay buffer: PBS/5% DMSO (pH 7.4 or pH 6.0)
Measuring temperature: 37° C.
Sensor chip: Series S Sensor Chip L1
Flow rate: 10 μL/minute at the time of liposome immobilization, 30 μL/minute at the time of interaction measurement
Regeneration: 20 mM CHAPS (3-[(3-cholamidopropyl)dimethylammonio]-1-propanesulfonate), an isopropanol/50 mM aqueous solution of sodium hydroxide=40/60 (volume ratio) mixed solution (60 seconds)
The data treatment was carried out in accordance with the method of Abdiche et al. (Analytical Biochemistry, 328, 233-243 (2004)) using Biacore S51 Evaluation Software.
After correcting infinitesimal error of the concentration of DMSO contained in the sample solution, the value of binding response (RU) obtained by subtracting the value of reference was divided by the sample molecular weight. Additionally, since the thus obtained value is proportional to the capturing amount of liposome, it was divided by the capturing amount at the time of the cycling and multiplied by 10^6 to be used as the correction value (correction value=1000000×RU (compound to be tested)/molecular weight (compound to be tested) RU (liposome)).
By adding propranolol, amiodarone, desipramine, imipramine and procaine as controls, it was confirmed that variation of the binding response is within about 10 to 15%.
Compounds having a binding response value after correction of 100 or more were judged positive.

T1 sequence (Q16539 whole entry): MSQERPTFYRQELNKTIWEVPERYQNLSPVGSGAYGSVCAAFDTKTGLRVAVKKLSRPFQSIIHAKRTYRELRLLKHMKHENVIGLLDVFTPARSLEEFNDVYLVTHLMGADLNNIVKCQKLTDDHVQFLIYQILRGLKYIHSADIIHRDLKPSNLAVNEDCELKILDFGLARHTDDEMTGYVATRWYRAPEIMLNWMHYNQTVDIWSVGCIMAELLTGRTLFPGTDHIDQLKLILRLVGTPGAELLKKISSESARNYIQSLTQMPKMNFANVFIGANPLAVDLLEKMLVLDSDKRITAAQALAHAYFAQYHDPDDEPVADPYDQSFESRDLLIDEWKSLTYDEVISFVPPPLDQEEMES

For `CC(C)(O)c1nc(-c2ccc(=O)n(-c3c(F)cccc3F)c2)c(-c2ccc(F)cc2F)o1` [Example 7 (21), 1-(2,6-difluorophenyl)-5-[5-(2,4-difluorophenyl)-2-(1-hydroxy-1-methylethyl)-1,3-oxazol-4-yl]-2(1H)-pyridinone], in data set [1], the concentration for half-maximal inhibition (IC50) was determined as 3.5 nM. Further, the inhibition at 0.3 mg/kg in data set [2] stood at 85%. For the same compound, in data set [3], the “Binding Level (RU)” value came to 18.3 RU and the Judgment result is listed as “Negative”.

On to `C[C@@](O)(CO)c1nc(-c2ccc(=O)n(-c3c(F)cccc3F)c2)c(-c2ccc(F)cc2F)o1` [Example 167 (1), 1-(2,6-difluorophenyl)-5-{5-(2,4-difluorophenyl)-2-[(1R)-1,2-dihydroxy-1-methylethyl]-1,3-oxazol-4-yl}-2(1H)-pyridinone], for which, in data set [1], the IC50 turned out to be 4.4 nM. Also, the inhibition at 0.3 mg/kg in data set [2] is 73%. In addition, in data set [3], the “Binding Level (RU)” value came to 19.6 RU and the Judgment result is given as “Negative”.

Take `CC(C)(O)[C@@H](O)c1nc(-c2ccc(=O)n(-c3c(F)cccc3F)c2)c(-c2ccc(F)cc2F)o1` [Example 227 (1), 1-(2,6-difluorophenyl)-5-{5-(2,4-difluorophenyl)-2-[(1R)-1,2-dihydroxy-2-methylpropyl]-1,3-oxazol-4-yl}-2(1H)-pyridinone]: in data set [1], the IC50 came to 4.8 nM. Further, the inhibition at 0.3 mg/kg in data set [2] is 88%. In data set [3], the “Binding Level (RU)” value is listed as 21.0 RU and the Judgment entry is listed as “Negative”.

Consider `O=c1ccc(-c2nc(C(O)(CO)CO)oc2-c2ccc(F)cc2F)cn1-c1c(F)cccc1F` [Example 7 (39), 1-(2,6-difluorophenyl)-5-{5-(2,4-difluorophenyl)-2-[1,2-dihydroxy-1-(hydroxymethyl)ethyl]-1,3-oxazol-4-yl}-2(1H)-pyridinone], for which the IC50 in data set [1] is 2.8 nM. In addition, in data set [2], the inhibition at 0.3 mg/kg was 64%. In data set [3], the “Binding Level (RU)” value was determined as 11.1 RU and the Judgment entry is “Negative”.

Take `O=c1ccc(-c2oc(C(O)(CO)CO)nc2-c2ccc(F)cc2F)cn1-c1c(F)cccc1F` [Example 223, 1-(2,6-difluorophenyl)-5-{4-(2,4-difluorophenyl)-2-[1,2-dihydroxy-1-(hydroxymethyl)ethyl]-1,3-oxazol-5-yl}-2(1H)-pyridinone]: the IC50 in data set [1] stood at 3.3 nM. In data set [2], the inhibition at 0.3 mg/kg was determined as 72%. Moreover, in data set [3], the “Binding Level (RU)” value is 8.7 RU and the Judgment result is on record as “Negative”.

Take `CC(C)(O)Cc1nc(-c2ccc(F)cc2F)c(-c2ccc(=O)n(-c3c(F)cccc3F)c2)o1` [Example 220, 1-(2,6-difluorophenyl)-5-[4-(2,4-difluorophenyl)-2-(2-hydroxy-2-methylpropyl)-1,3-oxazol-5-yl]-2(1H)-pyridinone]: the IC50 in data set [1] came out at 8 nM. Also, the inhibition at 0.3 mg/kg in data set [2] came out at 88%. Also, in data set [3], the “Binding Level (RU)” value came to 15.5 RU and the Judgment result was “Negative”.

Consider `C[C@@](O)(CO)c1nc(-c2ccc(F)cc2F)c(-c2ccc(=O)n(-c3c(F)cccc3F)c2)o1` [Example 211, 1-(2,6-difluorophenyl)-5-{4-(2,4-difluorophenyl)-2-[(1R)-1,2-dihydroxy-1-methylethyl]-1,3-oxazol-5-yl}-2(1H)-pyridinone], for which, in data set [1], the IC50 stood at 5.6 nM. In addition, the inhibition at 0.3 mg/kg in data set [2] was determined as 85%. For the same compound, in data set [3], the “Binding Level (RU)” value is reported as 11.1 RU and the Judgment result is given as “Negative”.

As to `CC(C)(O)[C@H](O)c1nc(-c2ccc(F)cc2F)c(-c2ccc(=O)n(-c3c(F)cccc3F)c2)o1` [Example 206, 1-(2,6-difluorophenyl)-5-{4-(2,4-difluorophenyl)-2-[(1S)-1,2-dihydroxy-2-methylpropyl]-1,3-oxazol-5-yl}-2(1H)-pyridinone], the IC50 in data set [1] amounted to 3.3 nM. Moreover, the inhibition at 0.3 mg/kg in data set [2] came out at 79%. In addition, in data set [3], the “Binding Level (RU)” value worked out at 14.7 RU and the Judgment result is reported as “Negative”.

With `CC(C)(O)[C@H](O)c1nc(-c2ccc(=O)n(-c3c(F)cccc3F)c2)c(-c2ccc(F)cc2F)o1` [Example 227, 1-(2,6-difluorophenyl)-5-{5-(2,4-difluorophenyl)-2-[(1S)-1,2-dihydroxy-2-methylpropyl]-1,3-oxazol-4-yl}-2(1H)-pyridinone], the IC50 in data set [1] is 3.9 nM. In addition, the inhibition at 0.3 mg/kg in data set [2] was 65%. In data set [3], the “Binding Level (RU)” value amounted to 22.5 RU and the Judgment result is “Negative”.

As to `CC(C)(O)[C@@H](O)c1nc(-c2ccc(F)cc2F)c(-c2ccc(=O)n(-c3c(F)cccc3F)c2)o1` [Example 207, 1-(2,6-difluorophenyl)-5-{4-(2,4-difluorophenyl)-2-[(1R)-1,2-dihydroxy-2-methylpropyl]-1,3-oxazol-5-yl}-2(1H)-pyridinone], the IC50 in data set [1] came out at 3.7 nM. Further, the inhibition at 0.3 mg/kg in data set [2] came out at 94%. Also, in data set [3], the “Binding Level (RU)” value came to 12.8 RU and the Judgment entry was “Negative”.

Take `C[C@](O)(CO)c1nc(-c2ccc(=O)n(-c3c(F)cccc3F)c2)c(-c2ccc(F)cc2F)o1` [Example 167 (2), 1-(2,6-difluorophenyl)-5-{5-(2,4-difluorophenyl)-2-[(1S)-1,2-dihydroxy-1-methylethyl]-1,3-oxazol-4-yl}-2(1H)-pyridinone]: the IC50 in data set [1] is 3.8 nM. Further, in data set [2], the inhibition at 0.3 mg/kg turned out to be 64%. Moreover, in data set [3], the “Binding Level (RU)” value was 22.2 RU and the Judgment entry is recorded as “Negative”.
